Experimental data as given in publication PMC8465649, “Semaphorin 3A—Glycosaminoglycans Interaction as Therapeutic Target for Axonal Regeneration” (Pharmaceuticals, 2021).

Key:
[1] = NMR competition (WaterLOGSY / spin-lock filtered 1H): displacement of FS2/FS3 peptides from heparin agarose resin; format: binding; details: WaterLOGSY; 1:1 peptoid/FS2, both 1 mM; pH 7.5
Procedure: NMR competition experiments involved the acquisition of 1D-^1H WaterLOGSY or spin-lock filtered NMR spectra. Thus, FS2 peptide is displaced from heparin agarose resin by CSIC02 (1:1 peptoid/FS2, both 1 mM), but not by CSIC03 (Figure S15). […] We reasoned that if CSIC02 was able to interact with GAG and displace FS2/FS3 basic peptides, it may also interfere with SCTWT–heparin interaction. To investigate if CSIC02 could displace SCTWT from heparin dp14 and to define the SCTWT residues affected, 2D NMR ^1H-^15N HSQC CSP experiments were used. Figure 8a illustrates the chemical shift effects of CSIC02 addition to a sample of SCTWT containing dp14 heparin. […] In Figure 8b, we display the chemical shift perturbation of SCTWT NMR spectra in the presence of dp14 and CSIC02. Thus, as the two CSP plots in Figure 4b and Figure 8b were calculated using as reference SCTWT alone in solution, we can compare them directly. […] Moreover, splitting of signals for some residues (R733, R734, and Q735 in the first GAG-binding region) was observed (Figure 8c). This observation is compatible with the presence of different species in slow chemical exchange in solution, with partial detachment of SCTWT from heparin. The amount of CSIC02 used in these experiments can be rationalized considering that the SCTWT has ca. 12 positive charges at neutral pH (Figure S18), while CSIC02 is tricationic. Since the binding is mediated by ionic polar interactions, a large excess of CSIC02 is needed to counterbalance the SCTWT-dp14 binding.
Next, 1D ^1H T1ρ relaxation filtered and WaterLOGSY NMR experiments were acquired at 25 °C on a 500-MHz spectrometer (Varian Inova; Agilent Technologies, Santa Clara, CA, USA) equipped with an AutoX inverse double-resonance probe with a z-shielded pulsed-field gradient coil. The samples were prepared in a 5-mm Wilmad NMR 528-PP tubes with 10 mM Tris-d11 (for peptide/GAG samples) and 150 mM NaCl dissolved in 90% H2O/10% D2O at pH 7.5. All spectra were obtained with a sweep width of 8 kHz and 16,384 acquired data points. The experiments were recorded using the standard pulse sequence in the (WLOGSY_ES) Chempack library, with excitation sculpting to suppress water resonances. For Water-LOGSY experiments, the first water-selective 180° pulse was 25 ms long. The spectra were acquired with 1200 transients and a spin-lock pulse of 50 ms at 3.7 kHz. To phase Water-LOGSY spectra correctly, it is necessary to use an internal reference compound. In our case, the reference is the residual ethanol absorbed/bonded in heparin-agarose resin (this interaction was previously confirmed with T1ρ filtered experiments), which appears as a positively phased signal. […]

[2] = tested on: SCTWT–heparin interaction; test: 2D 1H-15N HSQC CSP: displacement of SCTWT from dp14 heparin; format: binding, human; details: 0.2 mM SCTWT, 0.05 mM dp14 heparin, 4 mM CSIC02, pH 4.5
Procedure: NMR competition experiments involved the acquisition of 1D-^1H WaterLOGSY or spin-lock filtered NMR spectra. Thus, FS2 peptide is displaced from heparin agarose resin by CSIC02 (1:1 peptoid/FS2, both 1 mM), but not by CSIC03 (Figure S15). […] We reasoned that if CSIC02 was able to interact with GAG and displace FS2/FS3 basic peptides, it may also interfere with SCTWT–heparin interaction. To investigate if CSIC02 could displace SCTWT from heparin dp14 and to define the SCTWT residues affected, 2D NMR ^1H-^15N HSQC CSP experiments were used. Figure 8a illustrates the chemical shift effects of CSIC02 addition to a sample of SCTWT containing dp14 heparin. […] In Figure 8b, we display the chemical shift perturbation of SCTWT NMR spectra in the presence of dp14 and CSIC02. Thus, as the two CSP plots in Figure 4b and Figure 8b were calculated using as reference SCTWT alone in solution, we can compare them directly. […]
Figure 8 (a) Overlay of [^1H-^15N]-HSQC spectra of 0.2 mM Sema3A C-terminal region (orange) highlighting the changes of 0.05 mM (or 0.35 mM in disaccharide units) dp14 heparin oligosaccharide binding in the absence (purple) and the presence (turquoise) of 4 mM CSIC02. […] The absolute values of the chemical shift differences between the presence and absence of dp14 are plotted in ppm and calculated comparing with the chemical shifts of the protein alone. […]

SMILES: CCN(CC)CCN(CC(=O)N(CCN1CCCC1)CC(=O)N(CCC1CCCN1C)CC(N)=O)C(=O)OCc1ccccc1 (centres unmarked) [CSIC02]
- displacement of FS2 peptide from heparin agarose resin [1]: displaced
- effect on dp14 heparin-induced chemical shift perturbations of SCTWT [2]: modest decrease in dp14-induced perturbations
